Patent US20240279207A1, “SUBSTITUTED ACYL SULFONAMIDES FOR TREATING CANCER” (The Broad Institute, Inc., priority 2020, published 2024)

Assays:
[1] = target: T1, Recombinant human His-tagged Kat6a protein (amino acids 194-810) (Homo sapiens, UniProt Q92794); assay: Kat6a activity assay (TR-FRET, acetylation of Histone-H4-derived peptide); assay type: biochemical; conditions: 60 mins at 22° C., 220 nM H4 peptide, 600 nM Acetyl Coenzyme A, read-out: KAT6A - DPF/HAT domain IC50 [mol/l] (arithmetic mean)
T1 construct: Kat6a protein (amino acids 194-810); His

[2] = system: ESR1 transcription in MVLN cells; assay: MVLN reporter assay: repression of ESR1 transcription (luciferase signal); assay type: cell-based; conditions: Homo sapiens, MVLN, 24 h, luciferase signal after 24 h, read-out: MVLN reporter assay, IC50 [M] (arithmetic mean)
How it was run: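 To control for cell loss, Alamar Blue (2 h, 530/590 nm) precedes the 24 h luciferase measurement. The reporter is an ERE from the Xenopus vitellogenin A2 gene driving luciferase, stably transfected into ER-expressing MVLN cells; duplicate samples.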

ZR-75-1 cells = assay: ZR-75-1 proliferation assay; assay type: cell-based; conditions: Homo sapiens, ZR-75-1, 144 h, Alamar Blue, read-out: ZR75-1 proliferation assay, EC50 [M] (arithmetic mean)
Excerpt: (§1) For compound characterization cell survival assays were routinely run in two cell lines. ZR-75-1 is a breast carcinoma cell line containing a focal KAT6A amplification and high KAT6A protein expression. Proliferation of this cell line is inhibited upon treatment with KAT6A inhibitors. As a negative control cell line MDA-MB-436 were used. These cells carry a […] deletion of the KAT6A gene, have a low KAT6A protein expression and are not growth inhibited upon treatment with KAT6A inhibitors.
(§2) For measurements cell lines were plated at the below indicated concentration per […] in 96-well plates in a humidified incubator at 37° C. and 5% CO2.
ZR-75-1 (ATCC, CRL-1500; breast carcinoma); 3000 cells per well; culture medium: RPMI 1640 (Biochrom #FG 1215) medium containing 2.5% FBS (Biochrom #S0615).
(§3) Each sample was prepared as triplicate and rim wells were excluded. Plates were incubated at 37° C. and 5% CO2 for 144 h. Cell viability was measured by adding 10 μL of Alamar Blue Reagent (Invitrogen #DAL 1100) and plates were incubated for 2 h at 37° C. and 5% CO2. Fluorescence was measured at 590 nm wavelength with a Tecan Spark or Victor X3 MTP-Reader (PerkinElmer).

LCLC97TM1 = LCLC97TM1 proliferation assay; assay type: cell-based; conditions: Homo sapiens, LCLC-97TM1, LCLC97TM1; read-out: LCLC97TM1 proliferation assay; EC50 [M] (arithmetic mean)
MDA-MB-436 cells = assay: MDA-MB-436 proliferation assay (negative control cell line); assay type: cell-based; conditions: Homo sapiens, 144 h, Alamar Blue, read-out: MDA-MB-436 proliferation assay, EC50 [M] (arithmetic mean)
Excerpt: as §1, §2
MDA-MB-436 (CLS, 300278; breast adenocarcinoma); 3000 cells per well; culture medium: DMEM/Ham's F12 (Biochrom #FG 4815) medium containing 2.5% FBS (Biochrom #S0615).
as §3

T1 sequence (Q92794 194-810): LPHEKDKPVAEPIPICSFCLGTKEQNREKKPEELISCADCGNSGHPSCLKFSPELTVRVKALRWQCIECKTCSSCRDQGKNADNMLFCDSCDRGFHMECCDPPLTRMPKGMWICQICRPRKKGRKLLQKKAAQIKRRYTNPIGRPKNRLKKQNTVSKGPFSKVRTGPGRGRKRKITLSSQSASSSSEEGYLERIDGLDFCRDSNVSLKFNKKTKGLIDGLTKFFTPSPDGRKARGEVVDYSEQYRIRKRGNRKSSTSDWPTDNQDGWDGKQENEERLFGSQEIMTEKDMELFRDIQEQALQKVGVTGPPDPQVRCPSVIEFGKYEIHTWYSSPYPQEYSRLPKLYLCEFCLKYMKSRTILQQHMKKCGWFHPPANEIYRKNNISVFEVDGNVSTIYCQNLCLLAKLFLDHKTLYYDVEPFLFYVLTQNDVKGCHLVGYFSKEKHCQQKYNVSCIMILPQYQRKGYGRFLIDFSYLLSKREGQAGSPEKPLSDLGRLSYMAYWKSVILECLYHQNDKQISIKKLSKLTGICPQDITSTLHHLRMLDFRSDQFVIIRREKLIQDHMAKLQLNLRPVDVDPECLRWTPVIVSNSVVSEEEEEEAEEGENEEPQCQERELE

## C=C(C)c1ccc(OC)c(S(=O)(=O)NC(=O)c2cc3c(F)cc(N4CCC4)cc3o2)c1 [Example 205, 6-(Azetidin-1-yl)-4-fluoro-N-[2-methoxy-5-(prop-1-en-2-yl)benzene-1-sulfonyl]-1-benzofuran-2-carboxamide]
[1]
  IC50: 0.00797 µM
[2]
  IC50: 7.15e-08 M
ZR-75-1 cells
  EC50: 1.73e-07 M
LCLC97TM1
  EC50: 9.37e-07 M
MDA-MB-436 cells
  EC50: > 2e-05 M

## CCCOc1ccccc1S(=O)(=O)NC(=O)c1cc2c(F)cc(N3CCC3)cc2o1 [Example 133, 6-(Azetidin-1-yl)-4-fluoro-N-(2-propoxybenzene-1-sulfonyl)-1-benzofuran-2-carboxamide]
[1]
  IC50: 0.0218 µM
[2]
  IC50: 6.41e-08 M
ZR-75-1 cells
  EC50: 1.61e-07 M
LCLC97TM1
  EC50: 6.64e-07 M
MDA-MB-436 cells
  EC50: > 2e-05 M

## Cc1ccc(OC(C)C)c(S(=O)(=O)NC(=O)c2cc3c(F)cc(N4CC(F)C4)cc3o2)c1 [Example 157, 4-Fluoro-6-(3-fluoroazetidin-1-yl)-N-{5-methyl-2-[(propan-2-yl)oxy]benzene-1-sulfonyl}-1-benzofuran-2-carboxamide]
[1]
  IC50: 0.0373 µM
[2]
  IC50: 7.51e-08 M
ZR-75-1 cells
  EC50: 1.1e-07 M
LCLC97TM1
  EC50: 7.07e-07 M
MDA-MB-436 cells
  EC50: > 2e-05 M

## Cc1cc2c(c(S(=O)(=O)NC(=O)c3cc4c(F)cc(N5CCC5)cc4o3)c1C)OC(C)(C)C2 [Example 204, 6-(Azetidin-1-yl)-4-fluoro-N-(2,2,5,6-tetramethyl-2,3-dihydro-1-benzofuran-7-sulfonyl)-1-benzofuran-2-carboxamide]
[1]
  IC50: 0.0077 µM
[2]
  IC50: 1.79e-07 M
ZR-75-1 cells
  EC50: 3.4e-07 M
LCLC97TM1
  EC50: 8.36e-07 M
MDA-MB-436 cells
  EC50: 1.6e-06 M

## CCOc1ccc(CC)cc1S(=O)(=O)NC(=O)c1cc2c(F)cc(N3CC(F)C3)cc2o1 [Example 153, N-(2-ethoxy-5-ethylbenzene-1-sulfonyl)-4-fluoro-6-(3-fluoroazetidin-1-yl)-1-benzofuran-2-carboxamide]
[1]
  IC50: 0.0105 µM
[2]
  IC50: 4.69e-08 M
ZR-75-1 cells
  EC50: 4.98e-08 M
LCLC97TM1
  EC50: 1.6e-07 M
MDA-MB-436 cells
  EC50: > 2e-05 M

## CCOc1ccccc1S(=O)(=O)NC(=O)c1cc2ccc(N3CC(F)(F)C3)cc2o1 [Example 118, 6-(3,3-Difluoroazetidin-1-yl)-N-(2-ethoxybenzene-1-sulfonyl)-1-benzofuran-2-carboxamide]
[1]
  IC50: 1.99 µM
[2]
  IC50: 1.2e-06 M
ZR-75-1 cells
  EC50: 2.46e-06 M
LCLC97TM1
  EC50: 2.72e-06 M
MDA-MB-436 cells
  EC50: > 2e-05 M

## CCCOc1cccc(OCCC)c1S(=O)(=O)NC(=O)c1cc2c(F)cc(N3CCC3)cc2o1 [Example 17, 6-(Azetidin-1-yl)-N-(2,6-dipropoxybenzene-1-sulfonyl)-4-fluoro-1-benzofuran-2-carboxamide]
[1]
  IC50: 0.00447 µM
[2]
  IC50: 1.76e-07 M
ZR-75-1 cells
  EC50: 2.76e-07 M
LCLC97TM1
  EC50: 8.49e-07 M
MDA-MB-436 cells
  EC50: > 2e-05 M

## CC1(C)CCc2cccc(S(=O)(=O)NC(=O)c3cc4c(F)cc(N5CCC5)cc4o3)c2O1 [Example 80, 6-(Azetidin-1-yl)-N-(2,2-dimethyl-3,4-dihydro-2H-1-benzopyran-8-sulfonyl)-4-fluoro-1-benzofuran-2-carboxamide]
[1]
  IC50: 0.0121 µM
[2]
  IC50: 7.27e-08 M
ZR-75-1 cells
  EC50: 1.49e-07 M
LCLC97TM1
  EC50: 3.17e-07 M
MDA-MB-436 cells
  EC50: > 2e-05 M

## CC(C)Oc1ccccc1S(=O)(=O)NC(=O)c1cc2c(F)cc(N3CC(F)C3)cc2o1 [Example 155, 4-Fluoro-6-(3-fluoroazetidin-1-yl)-N-{2-[(propan-2-yl)oxy]benzene-1-sulfonyl}-1-benzofuran-2-carboxamide]
[1]
  IC50: 0.0367 µM
[2]
  IC50: 7.14e-08 M
ZR-75-1 cells
  EC50: 7.48e-08 M
LCLC97TM1
  EC50: 4.28e-07 M
MDA-MB-436 cells
  EC50: > 2e-05 M

## CCOc1cccc(OCc2ccccc2)c1S(=O)(=O)NC(=O)c1cc2c(F)cc(N3CCC3)cc2o1 [Example 7, 6-(Azetidin-1-yl)-N-[2-(benzyloxy)-6-ethoxybenzene-1-sulfonyl]-4-fluoro-1-benzofuran-2-carboxamide]
[1]
  IC50: 0.00415 µM
[2]
  IC50: 1.23e-07 M
ZR-75-1 cells
  EC50: 3.7e-07 M
LCLC97TM1
  EC50: 2.92e-07 M
MDA-MB-436 cells
  EC50: > 2e-05 M

## CCOc1ccccc1S(=O)(=O)NC(=O)c1cc2ccc(N3CC4(COC4)C3)cc2o1 [Example 125, N-(2-ethoxybenzene-1-sulfonyl)-6-(2-oxa-6-azaspiro[3.3]heptan-6-yl)-1-benzofuran-2-carboxamide]
[1]
  IC50: > 20 µM
[2]
  IC50: > 2e-05 M
ZR-75-1 cells
  EC50: > 2e-05 M
LCLC97TM1
  EC50: > 2e-05 M
MDA-MB-436 cells
  EC50: > 2e-05 M

## CC(C)c1ccc(OCC(F)(F)F)c(S(=O)(=O)NC(=O)c2cc3c(F)cc(N4CCC4)cc3o2)c1 [Example 215, 6-(azetidin-1-yl)-4-fluoro-N-[5-isopropyl-2-(2,2,2-trifluoroethoxy)phenyl]sulfonyl-benzofuran-2-carboxamide]
[1]
  IC50: 0.00718 µM
[2]
  IC50: 7.43e-08 M
ZR-75-1 cells
  EC50: 5.82e-07 M
LCLC97TM1
  EC50: 2.83e-06 M
MDA-MB-436 cells
  EC50: > 2e-05 M

## Cc1ccc(OC(C)C)c(S(=O)(=O)NC(=O)c2cc3c(F)cc(N4CCC4)cc3o2)c1 [Example 134, 6-(Azetidin-1-yl)-4-fluoro-N-{5-methyl-2-[(propan-2-yl)oxy]benzene-1-sulfonyl}-1-benzofuran-2-carboxamide]
[1]
  IC50: 0.0183 µM
[2]
  IC50: 7.44e-08 M
ZR-75-1 cells
  EC50: 8.18e-08 M
LCLC97TM1
  EC50: 3.76e-07 M
MDA-MB-436 cells
  EC50: > 2e-05 M

## CC(C)(C)c1ccc(OCC2CC2)c(S(=O)(=O)NC(=O)c2cc3c(F)cc(N4CCC4)cc3o2)c1 [Example 226, 6-(Azetidin-1-yl)-N-[(5-(tert-butyl)-2-(cyclopropylmethoxy)phenyl)sulfonyl]-4-fluorobenzofuran-2-carboxamide]
[1]
  IC50: 0.00179 µM
[2]
  IC50: 5.37e-08 M
ZR-75-1 cells
  EC50: 2.78e-08 M
LCLC97TM1
  EC50: 4.63e-08 M
MDA-MB-436 cells
  EC50: > 2e-05 M

## COc1ccc(N2CCCC2c2ccccc2)cc1S(=O)(=O)NC(=O)c1cc2c(F)cc(N3CCC3)cc2o1 (racemic) [Example 201, 6-(Azetidin-1-yl)-4-fluoro-N-[2-methoxy-5-(2-phenylpyrrolidin-1-yl)benzene-1-sulfonyl]-1-benzofuran-2-carboxamide (rac)]
[1]
  IC50: 0.000814 µM
[2]
  IC50: 6.48e-07 M
ZR-75-1 cells
  EC50: 3.26e-06 M
LCLC97TM1
  EC50: 2.81e-06 M
MDA-MB-436 cells
  EC50: > 2e-05 M

## O=C(NS(=O)(=O)c1c(OCc2ccccc2)cccc1OC1CCC1)c1cc2c(F)cc(N3CCC3)cc2o1 [Example 5, 6-(Azetidin-1-yl)-N-[2-(benzyloxy)-6-(cyclobutyloxy)benzene-1-sulfonyl]-4-fluoro-1-benzofuran-2-carboxamide]
[1]
  IC50: 0.00142 µM
[2]
  IC50: 6.43e-08 M
ZR-75-1 cells
  EC50: 3.57e-06 M
LCLC97TM1
  EC50: 9.88e-06 M
MDA-MB-436 cells
  EC50: > 2e-05 M

## CCOc1ccccc1S(=O)(=O)NC(=O)c1cc2c(F)cc(N3CCC3C(C)(C)O)cc2o1 (racemic) [Example 162, N-(2-ethoxybenzene-1-sulfonyl)-4-fluoro-6-[2-(2-hydroxypropan-2-yl)azetidin-1-yl]-1-benzofuran-2-carboxamide (rac)]
[1]
  IC50: 1.99 µM
[2]
  IC50: 1.95e-05 M
ZR-75-1 cells
  EC50: > 2e-05 M
LCLC97TM1
  EC50: > 2e-05 M
MDA-MB-436 cells
  EC50: > 2e-05 M
